Patent US11707444B2, “Antiviral composition for SARS-CoV-2 containing cannabinoids as active ingredient” (priority 2020, dated 2023)
Read-outs that look alike come from different tables or passages of the source.

Key:
[1] = 100 mg of CBD, healthy volunteers, reported; cited from earlier work
[2] = 0.3 mg/kg/day, report; cited from earlier work
[3] = tested on: SARS-CoV-2; experiment: microbe, parasite or virus in culture; assay type: cell-based, SARS-CoV-2 (βCoV/KOR/KCDC03/2020)
[4] = tested on: Vero cells; experiment: Vero cell viability in the dose-response curve assay; assay type: cell-based
Method: Dose-response curve (DRC) analysis was performed according to a conventionally known method (Jeon, S., Ko, M., Lee, J., Choi, I., Byun, S Y, Park, S., Shum, D., and Kim, S. (2020). Identification of antiviral drug candidates against SARS-CoV-2 from FDA-approved drugs. Antimicrobial Agents and Chemotherapy). Briefly, the Vero cells were seeded at 1.2×10^4 cells per well in DMEM containing 1× Antibiotic-Antimycotic solution (Gibco) and 2% FBS in a 384-well, μClear plate (Greiner Bio-One) and maintained for 24 h. After that, the cells were treated twice with compounds in the concentration range of 0.05-100 μM. A 9-point dose-response curve (DRC) was generated. For viral infection, the plate was transferred to a BSL-3 isolation facility and SARS-CoV-2 was added to an MOI value of 0.0125. Next, the cells were fixed at 24 hpi with 4% PFA and measured using the immunofluorescence method Operetta (Perkin Elmer).
Images acquired using software within the Pasteur Institute in Korea were used to estimate the infection rate and cell number, and antiviral activity was normalized to negative (0.5% DMSO) and positive controls (mock). The dose-response curve (DRC) was measured using the sigmoidal dose-response model Y=Bottom+(Top−Bottom)/(1+(IC50/X)^Hillslope) using Prism or 7XLfit 4 software. Finally, IC50 values were measured for curves fitted to the normalized activity data set. […]

[5] = cited from earlier work
[6] = target: CBR2 (Homo sapiens, UniProt P34972); settings: reported (Pertwee 2008); cited from earlier work
CBR2, sequence (P34972 whole entry): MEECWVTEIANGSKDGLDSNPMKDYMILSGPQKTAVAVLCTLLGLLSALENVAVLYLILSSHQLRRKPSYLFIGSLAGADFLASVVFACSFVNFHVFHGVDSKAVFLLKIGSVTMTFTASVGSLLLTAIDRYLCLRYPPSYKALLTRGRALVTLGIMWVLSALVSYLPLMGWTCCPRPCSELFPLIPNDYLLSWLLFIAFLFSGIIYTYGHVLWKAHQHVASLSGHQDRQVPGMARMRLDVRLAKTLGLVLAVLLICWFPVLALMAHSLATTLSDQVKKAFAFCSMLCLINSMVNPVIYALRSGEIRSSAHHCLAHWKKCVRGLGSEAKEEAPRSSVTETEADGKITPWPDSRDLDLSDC

[7] = Severe acute respiratory syndrome coronavirus 2, Vero; read-out: IC50, antiviral activity against SARS-CoV-2

C=C(C)[C@@H]1CCC(C)=C[C@H]1c1c(O)cc(CCCCC)cc1O [Compound T22, Cannabidiol]
safety and tolerability [1]: safe and tolerable | effect in Crohn's disease [2]: effective | IC50 [3, 7]: 7.91 µM | inhibition at 12.5 µM ([3]; Severe acute respiratory syndrome coronavirus 2; at 12.50 μM, Vero cells): 99.2% | Vero cell viability ([4]; at 12.50 μM): 97.46% | host cell viability ([4]; at 50 μM): decreased sharply | dose reported to be safe [5]: up to 60 mg per day

C=C(C)[C@@H]1CCC(C)=C[C@H]1c1c(O)cc(CCCCC)c(C(=O)O)c1O [Compound T23, Cannabidiolic acid]
IC50 [3, 7]: 37.6 µM

CCC(CC)COC(=O)[C@H](C)N[P@](=O)(OC[C@H]1O[C@@](C#N)(c2ccc3c(N)ncnn23)[C@H](O)[C@@H]1O)Oc1ccccc1 [remdesivir, reference compound]
IC50 ([3]; Severe acute respiratory syndrome coronavirus 2, Vero, read-out: IC50, antiviral activity against SARS-CoV-2): 13.2 µM

CCN(CC)CCCC(C)Nc1ccnc2cc(Cl)ccc12 (stereo not drawn) [chloroquine, reference compound]
IC50 [3, 7]: 8.17 µM

CCCCCc1cc(O)c2c(c1)OC(C)(C)c1ccc(C)cc1-2 [Compound T7, Cannabinol]
IC50 [3, 7]: 11.1 µM

Cc1cccc(C)c1OCC(=O)N[C@@H](Cc1ccccc1)[C@@H](O)C[C@H](Cc1ccccc1)NC(=O)[C@H](C(C)C)N1CCCNC1=O [lopinavir, reference compound]
IC50 [3, 7]: 9.78 µM

CCCCCc1cc(O)c2c(c1)OC(C)(C)[C@@H]1CCC(C)=C[C@@H]21 [Compound T4, Δ^9-Tetrahydrocannabinol]
IC50 [3, 7]: 10.2 µM | action at CBR2 [6]: partial agonist

CCCCCc1cc2c(c(O)c1C(=O)O)[C@@H]1C=C(C)CC[C@H]1C(C)(C)O2 [Compound T3, Δ9-Tetrahydrocannabinolic acid]
IC50 [3, 7]: 13.2 µM
